# Patent US20070015214A1, “Methods for identifying compounds for regulating muscle mass or function using prostanoid IP receptors” (The Procter & Gamble Company, priority 2005, published 2007)
# Marks after values point to notes of the source that are not given here.
# System: casting-induced atrophy of the tibialis anterior and medial gastrocnemius muscles
# Experiment: mouse casting model of skeletal muscle atrophy
# Assay type: in vivo
# Details: fourteen days, casted right hind leg, male mice
# Method: The role of the prostanoid IP receptor in vivo is investigated in the mouse casting model of skeletal muscle atrophy using the pharmacological agents carbaprostacyclin, ciprostene, beraprost and iloprost (Cayman Chemical Company, Ann Arbor, Mich.) which are selective agonists for the prostanoid IP receptor. Eight mice are used per treatment group in the study described. Following casting of the right hind leg, male mice are injected subcutaneously in the midscapular region once daily, with either carbaprostacyclin, ciprostene, beraprost, iloprost or vehicle control (phosphate buffered saline), for fourteen days at the daily delivered dose indicated. On day fourteen, the tibialis anterior and medial gastrocnemius muscles are removed and weighed to determine the degree of atrophy. Percent inhibition of atrophy is calculated using the following formula: [formula] Statistical significance of the results is determined using ANCOVA (Douglas C. Montgomery, Design and Analysis of Experiments, John Wiley and Sons, New York (2nd ed. 1984).
# [1] = 0.3 mg/kg/d subcutaneously once daily
# [2] = 1.0 mg/kg/d subcutaneously once daily
# [3] = 3.0 mg/kg/d subcutaneously once daily
SMILES,% inhibition of atrophy medial gastrocnemius muscle [1],% inhibition of atrophy tibialis anterior muscle [1],% inhibition of atrophy medial gastrocnemius muscle [2],% inhibition of atrophy tibialis anterior muscle [2],% inhibition of atrophy medial gastrocnemius muscle [3],% inhibition of atrophy tibialis anterior muscle [3]
CCCCC[C@H](O)/C=C/[C@H]1[C@H](O)C[C@]2(C)C/C(=C\CCCC(=O)O)C[C@H]12 [Ciprostene],25* %,5%,20%,9%,43* %,25* %
CC#CCC(C)[C@H](O)/C=C/[C@@H]1[C@H]2C/C(=C/CCCC(=O)O)C[C@H]2C[C@H]1O (stereo partly drawn) [Iloprost],42* %,18%,36* %,21* %,31* %,11%
CC#CCC(C)[C@H](O)/C=C/[C@@H]1[C@H]2c3cccc(CCCC(=O)O)c3O[C@H]2C[C@H]1O (mixture of isomers) [Beraprost],46* %,28* %,22%,27* %,28* %,5%
CCCCC[C@H](O)/C=C/[C@@H]1[C@H]2C/C(=C/CCCC(=O)O)C[C@H]2C[C@H]1O [Carbaprostacyclin],1%,0%,24* %,12%,43* %,8%
